Laboratory results from patent US9795570B2, “Modulation of macrophage phenotype by emodin” (University of South Carolina, priority 2016, dated 2017).

Columns and labels:
IRF4 = IRF4 protein by western blotting; type: cell-based, mouse; conditions: IL4, emodin 0-50 μM, 6 h
Experimental: Following stimulation with IL4 or LPS+IFNγ with or without emodin for varying periods, macrophages were lysed with cell signaling lysis buffer (Millipore) for whole cell lysates. Cytoplasmic and nuclear extracts were prepared using the Epiquik Nuclear Extraction kit (Epigentek, Farmingdale, N.Y.). Total protein was separated on 4-20% Tris-glycine pre-cast gels (Pierce) and transferred onto Nitrocellulose membranes (Bio-Rad Life Science, Hercules, Calif.). The membranes were then probed with HRP conjugated secondary antibodies, and signals were detected using Pierce ECL Western Blotting Substrate (Pierce).

[1] = test system: mouse peritoneal macrophages; assay: Macrophage memory experiments (re-stimulation after washout); type: cell-based
Experimental: For macrophage memory experiments, macrophages were stimulated overnight with IL4, IFNγ, and/or emodin. Following, the cells were washed 3× with PBS and cultured for 2 or 5 days in DMEM with 2% FBS. The media were changed every 2 days. The cells were then re-stimulated with IL4 or LPS for 6 h.
(§1) For qPCR, macrophages were lysed with Qiazol and RNA was extracted using Zymo research Direct-zol RNA isolation kit. cDNA was then made from 1 microgram of RNA using iScript cDNA Synthesis Kit (Bio-Rad Life Science). Run conditions were 95° C. for 10 s, 58° C. for 15 s, 70° C. for 15 s. Samples were run in duplicate on a Bio-rad CFX Real Time thermocycler.

EO771 tumors = assay: EO771 breast tumor model in C57BL/6 mice; type: in vivo
Experimental: C57BL/6 and BALB/c mice (8-12 weeks, female) were purchased from Jackson Labs (Bar Harbor, Me.). They were housed at the University of South Carolina Animal Research Facility, and all procedures were approved by the Institutional Animal Care and Use Committee. EO771 or 4T1 cells (2×10^5) in 20 μL of PBS were injected into the 4th pair of mammary glands on C57BL/6 mice or BALB/C, respectively, on Day 0. Starting on Day 1, emodin (40 mg/kg) or vehicle (2% DMSO) was injected intraperitoneally in 1 ml PBS once daily. The tumor size was measured using a caliper every 2-4 days, and the tumor volume was calculated using a formula: V (mm^3)=L (major axis)×W^2 (minor axis)/2. Mice were sacrificed at various time points.
At sacrifice, tumors were embedded in OCT. They were then cut into 8 μm thick frozen sections and placed on slides. For immunohistochemistry staining, the sections were fixed with 4% paraformaldehyde for 10 min, and then blocked with 0.01 M glycine containing 0.1% Triton x-100. Next, the sections were blocked with 5% BSA. They were then incubated in primary antibody overnight at 4° C.: anti-F4/80 (1:50, Biolegend), anti-pSTAT6 (1:50, Cell Signaling), or anti-C/EBPβ (1:50, Santa Cruz). The sections were washed with PBS and then incubated with secondary antibodies for 1 h at room temperature. The sections were then stained with DAPI (1 μg/mL) and coverslipped with DABCO. Slides were imaged using a Zeiss LSM 510 Confocal microscope (Zeiss, Peabody, Mass.). For quantitative analysis, the number of positive cells was manually counted in six random fields of view per section. CD31 staining was performed according to standard methodology. Slides were imaged on a Nikon ECLIPSE E600 microscope (Nikon, Melville, N.Y.) at 200× magnification (10 fields per section). The integrated optical density (IOD) of CD31 was quantified using Image-Pro Plus software.
Macrophages or T cells were isolated from 4T1 tumors from mice sacrificed at 6 weeks post implantation or from EO771 tumors 5 weeks post implantation, using EasySep™ Mouse PE Positive Selection Kit (Stem Cell Technologies, Vancouver, BC). For cell isolation, 1×10^7-1×10^8 cells were incubated with 20 μL PE conjugated anti-F4/80 (Biolegend) for macrophages or 20 μL PE conjugated anti-CD3 for T cells and 50 μL microbeads. The T cells and macrophages were lysed in Qiazol and used for RT-PCR analysis. For ChIP assays, 5-10×10^6 macrophages were fixed in 1% formaldehyde.

EO771 cells = assay: Proliferation, Ki67 staining; type: cell-based, mouse; conditions: 24 h
Experimental: (§2) For Ki67 staining, 4T1 and EO771 tumor cells were seeded into 6 well plates and cultured in SF DMEM overnight. They were then treated with various concentrations of emodin (0-50 μM) for 24 h. The cells were resuspended with trypsin plus EDTA and fixed with 1% paraformaldehyde. The cells were then permeabilized with 0.25% Triton X-100 and stained with anti-Ki67 […] (Abcam). The cells were washed and incubated with goat anti-rabbit Alexa 488 (Invitrogen, Eugene, Oreg.). After washing, the samples were analyzed by flow cytometry using a BD FACS flow cytometer and CXP software version 2.2. Data were collected for 10,000 live events per sample.

4T1 cells = assay: Proliferation, Ki67 staining; type: cell-based, mouse; conditions: 24 h
Experimental: as §2

[2] = test system: mouse peritoneal macrophages; assay: qPCR of macrophage activation genes; type: cell-based
Experimental: Three milliliters of 4% Thioglycolate solution was injected intraperitoneally into 8-12 week old C57BL/6 mice. Three days later, macrophages were collected by lavaging the peritoneal cavity with PBS. The cells were then resuspended in DMEM containing 10% FBS. After 2 h, non-adherent cells were washed away with PBS and the macrophages were cultured overnight in serum free DMEM. The macrophages were then treated with DMEM containing IL4 (10 ng/ml, BioAbChem Inc. Ladson, S.C.) or LPS (100 ng/ml, Sigma-Aldrich) and IFNγ (20 ng/ml, BioAbChem Inc) with or without emodin. Emodin was purchased from Nanjing Langze Medicine and Technology Co. Ltd (Nanjing, China) and dissolved in DMSO at a concentration of 10 mg/ml as a stock solution.
as §1

[3] = test system: Breast tumor cells from MMTV-PyMT mice; assay: Gene expression in ex vivo breast tumor cells (qPCR); type: cell-based, mouse
[4] = 40 mg/kg IP once daily from Day 1

## Cc1cc(O)c2c(c1)C(=O)c1cc(O)cc(O)c1C2=O [emodin]
IRF4
  IRF4 protein production: dose dependently inhibited
[1]; 50 μM 24 h, 2-d washout, IL4 6 h
  macrophage response to IL4 after emodin pretreatment alone: significantly reduced
[1]; 50 μM 24 h, 2-d washout, LPS 6 h
  macrophage response to LPS after emodin pretreatment alone: no effect
[1]; IFNγ or IL4 pretreated cells with or without emodin
  nuclear STAT1 or STAT6 after 5 days of wash-out: no significant difference
[1]; co-pretreatment with emodin
  macrophage response to LPS after IL4 pre-treatment (crossover): did not have any effects
[1]; emodin co-pretreatment
  response to secondary IL-4 stimulation after IFNγ pretreatment (crossover): decreased the response
[1]; first treated with emodin 50 μM with IFNγ or IL4 24 h, 2 d or 5 d washout
  response to second LPS or IL-4 treatment (iNOS, Arg1 expression): significantly diminished
EO771 tumors; [4]
  primary tumor growth: significant inhibition
  tumor weight at the endpoint: significant inhibition
EO771 tumors; F4/80+ cells from tumors, qPCR
  M1 marker (iNOS) expression in TAMs: significantly higher
  M2 marker (Arg1 and CD206) expression in TAMs: significantly lower
EO771 tumors; experimental endpoint, 40 mg/kg IP
  reduction of the number of tumor infiltrating macrophages (F4/80): 70%
EO771 tumors; microvessel density, 5 weeks post injection
  CD31 staining in tumors, relative to control: ~50%
EO771 tumors; qPCR, without statistical significance
  expression of inflammatory cytokines IL1β and TNFα in TAMs: higher expression levels
EO771 cells
  concentrations with no significant effect on cell proliferation: less than 50 μM
4T1 cells
  concentrations with no significant effect on cell proliferation: less than 50 μM
[2]; emodin 25 or 50 μM, 24 h
  expression of polarization markers iNOS, Arg1 and YM1 in naïve macrophages: no effects
[2]; qPCR, LPS/IFNγ vs IL4 settings
  expression of M1 genes TNFα, CXCL2 and CXCL10, and M2 gene Mrc1: inversely regulated
[2]; qPCR, under IL4 stimulation
  expression of M2 genes Arg1 and Chi3I3: inhibited
[2]; qPCR, under LPS/IFNγ or IL4 stimulation, respectively
  expression of receptors TLR4 and CSFr1: inhibited the expression
[2]; qPCR, under LPS/IFNγ stimulation
  expression of IL1β, iNOS, IL6, MMP2 and 9: inhibited the expression
[2]; qPCR, under both IL4 and LPS stimulation
  expression of IRF5, SOCS1 and CCL2: inhibited the expression
[3]
  expression of CCL2, CSF1, CD90, N-cadherin, vimentin, FoxC2 and KLF4: significantly suppressed
